Reference: US6358977B1, “Use of 4-piperidinemethanol derivatives in treatment of neurodevelopmental disorders” (A. Carlsson Research AB, priority 1998, dated 2002)
“Also recorded” adds a separate entry of the source.

Tested on: Male NMRI mice
Experiment: Animal model of autism: defective habituation (locomotor activity) in mice rendered hypoglutamatergic with MK-801
Format: in vivo
Source text: The inventor of the present invention and her coworkers have developed an animal model of autism, where mice are rendered hypoglutamatergic by treatment with the glutamate antagonist MK-801 (dizocilpine). Similarly to persons with autism, these hypoglutamatergic animals display defective habituation, perseverant behavior (e.g. relentless forward locomotion, so-called “obstinate progression”), stereotypies, a meager behavioral repertoire and difficulties to change behavioral program. The researchers have chosen to focus their investigation on the defective habituation, since this variable is easily quantified, and a prominent feature of autism.
Male NMRI mice (B&K Universal AB, Sollentuna, Sweden) weighing 25-30g at the time of testing were used in the experiments. Animals were housed in groups of about 20 per cage for at least one week before the experiment was carried out, with free access to water and food. Temperature: 20-22° C.; 12h light-dark cycle (lights on 6 AM).
(+)-MK-801 hydrogen maleate (dizocilpine; Research Biochemical Inc) was dissolved in physiological saline. M100907 [(+)-(R)-α-(2,3-dimethoxyphenyl)-1-[2-(4-fluorophenyl) ethyl]-4-piperidinemethanol; courtesy Hoechst Marion Roussel, Inc USA] was dissolved in a few microliters of acetic acid and a 5.5% glucose solution. The injection volume was 10 ml/kg. Control. animals were always given the same solvent as the drug was dissolved in.
Locomotor activity was measured using activity meters (Diaiscan animal activity monitor, model RXYZM (16) Tao, Omnitech Electronics, Columbus, Ohio, USA). The equipment consists of eight light and sound attenuated boxes (42×42×30 cm) with infrared photo sensors along the front and the side near the floor of the boxes.
When moved to a novel environment, normal mice display an initial phase of exploratory activity lasting about 30 minutes. […] The results shown in the figure are medians and upper and lower quartiles.
The inventor and […] co-workers then tested a compound according to the invention, namely M100907. […] M100907 was administered intraperitoneally immediately before the commencement of the behavioral recording. The M100907 doses were 0.001., 0.01 and 0.1 mg/kg, respectively. The results shown are medians and upper and lower quartiles (veh=vehicle=controls).

C[C@]12N[C@H](Cc3ccccc31)c1ccccc12 [MK-801, reference compound]
habituation in novel environment (loss of habituation, FIG. 1) (MK-801 0.3 or 0.8 mg/kg intraperitoneally immediately before 70 minutes recording, ordinate counts/5 min interval): deficient habituation; also recorded: impaired habituation

COc1cccc([C@H](O)C2CCN(CCc3ccc(F)cc3)CC2)c1OC [M100907, R-(+)-α-(2,3-dimethoxyphenyl)-1-[2-(4-fluorophenylethyl)]-4-piperidine-methanol]
effect on MK-801-induced deficient habituation (loss of habituation, FIG. 2) (M100907 0.001, 0.01 and 0.1 mg/kg intraperitoneally immediately before behavioral recording, MK-801-treated mice, ordinate m/30 min): displays anti-autistic effects; also recorded: alleviates the deficient habituation | interference with normal behavior (M100907 0.001, 0.01 and 0.1 mg/kg intraperitoneally, mice): without interfering with normal behavior | hyperactivity induced by the glutamate antagonist MK-801 (mouse, M100907 intraperitoneally): reducing the hyperactivity
